Test results published in patent US9487510B2, “Substituted heterocyclic acetamides as kappa opioid receptor (KOR) agonists” (Dr. Reddy's Laboratories Ltd., priority 2012, dated 2016).
Counter-ions that a name gives are not always drawn.

These molecules were tested against human KOR receptor (Homo sapiens, UniProt P41145) (assay: IP-One HTRF assay, potency of KOR agonists, dose-response in transiently transfected COS-7 cells).
Assay type: cell-based

Chain of human KOR receptor (P41145 whole entry): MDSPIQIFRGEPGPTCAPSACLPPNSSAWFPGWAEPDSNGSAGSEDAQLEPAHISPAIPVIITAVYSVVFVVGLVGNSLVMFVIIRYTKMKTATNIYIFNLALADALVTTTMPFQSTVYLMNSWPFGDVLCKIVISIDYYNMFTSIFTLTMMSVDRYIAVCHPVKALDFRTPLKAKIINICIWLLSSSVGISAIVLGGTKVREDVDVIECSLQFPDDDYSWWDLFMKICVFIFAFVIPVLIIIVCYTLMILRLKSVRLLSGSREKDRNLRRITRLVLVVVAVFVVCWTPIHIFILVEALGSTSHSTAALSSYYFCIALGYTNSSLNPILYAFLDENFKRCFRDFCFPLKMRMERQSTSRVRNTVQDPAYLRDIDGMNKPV

Row | SMILES | EC50 [nM]
1 | CC(C)(C)OC(=O)COc1cccc(C(CN2CC[C@H](O)C2)NC(=O)Cc2ccc3oc(=O)[nH]c3c2)c1 (mixture of isomers) [Example 74, (S)-tert-butyl 2-(3-(2-(3-hydroxypyrrolidin-1-yl)-1-(2-(2-oxo-2,3-dihydrobenzo[d]oxazol-5-yl)acetamido)ethyl)phenoxy)acetate] | ≤ 50
2 | CN(C(=O)Cc1ccc2oc(=O)[nH]c2c1)C(CN1CC[C@H](O)C1)c1cccc(OCC#N)c1 (mixture of isomers) [Example 76, N-(1-(3-(cyanomethoxy)phenyl)-2-(3-hydroxypyrrolidin-1-yl)ethyl)-N-methyl-2-(2-oxo-2,3-dihydrobenzo[d]oxazol-5-yl)acetamide] | ≤ 50
3 | O=C(O)COc1cccc(C(CN2CC[C@H](O)C2)NC(=O)Cc2ccc3c(c2)NC(=O)C3)c1 (mixture of isomers) [Example 100, (S)-2-(3-(2-(3-hydroxypyrrolidin-1-yl)-1-(2-(2-oxoindolin-6-yl)acetamido)ethyl)phenoxy)acetic acid hydrochloride] | ≤ 50
4 | O=C(O)COc1cccc(C(CN2CC[C@H](O)C2)NC(=O)Cc2ccc3oc(=O)[nH]c3c2)c1 (mixture of isomers) [Example 101, (S)-2-(3-(2-(3-hydroxypyrrolidin-1-yl)-1-(2-(2-oxo-2,3-dihydrobenzo[d]oxazol-5-yl)acetamido)ethyl)phenoxy)acetic acid] | ≤ 50
5 | CN(C(=O)Cc1ccc2oc(=O)[nH]c2c1)C(CN1CC[C@H](O)C1)c1cccc(OCc2nn[nH]n2)c1 (stereo in doubt) [Example 105, (R)-N-(1-(3-((2H-tetrazol-5-yl)methoxy)phenyl)-2-(3-hydroxypyrrolidin-1-yl)ethyl)-N-methyl-2-(2-oxo-2,3-dihydrobenzo[d]oxazol-5-yl)acetamide] | ≤ 50
6 | CN(C(=O)Cc1ccc2c(c1)NC(=O)CS2(=O)=O)[C@H](CN1CCC(O)C1)c1ccccc1 (stereo in doubt) [Example 120, 2-(1,1-dioxido-3-oxo-3,4-dihydro-2H-benzo[b][1,4]thiazin-6-yl)-N-((S)-2-((S)-3-hydroxypyrrolidin-1-yl)-1-phenylethyl)-N-methylacetamide] | ≤ 50
7 | CC(C)CN(C(=O)Cc1ccc2c(c1)NC(=O)CS2(=O)=O)[C@H](CN1CCC(O)C1)c1cccc(OC(F)(F)F)c1 (stereo in doubt) [Example 140, 2-(1,1-dioxido-3-oxo-3,4-dihydro-2H-benzo[b][1,4]thiazin-6-yl)-N-((S)-2-((S)-3-hydroxypyrrolidin-1-yl)-1-(3-(trifluoromethoxy)phenyl)ethyl)-N-isobutylacetamide] | ≤ 50
8 | O=C1CS(=O)(=O)c2ccc(CC(=O)N(CC3CC3)[C@H](CN3CCC(O)C3)c3cccc(OC(F)(F)F)c3)cc2N1 (stereo in doubt) [Example 141, N-(cyclopropylmethyl)-2-(1,1-dioxido-3-oxo-3,4-dihydro-2H-benzo[b][1,4]thiazin-6-yl)-N-((S)-2-((S)-3-hydroxypyrrolidin-1-yl)-1-(3-(trifluoromethoxy)phenyl)ethyl)acetamide] | ≤ 50
9 | CN(C(=O)Cc1ccc2c(c1)NC(=O)CS2(=O)=O)C(CN1CC[C@H](O)C1)c1ccc(OC(F)(F)F)cc1 (stereo in doubt) [Example 142, 2-(1,1-dioxido-3-oxo-3,4-dihydro-2H-benzo[b][1,4]thiazin-6-yl)-N-((S)-2-((S)-3-hydroxypyrrolidin-1-yl)-1-(4-(trifluoromethoxy)phenyl)ethyl)-N-methylacetamide] | ≤ 50
10 | Cc1cc(C)cc([C@@H](CN2CCC(O)C2)N(C)C(=O)Cc2ccc3c(c2)NC(=O)CS3(=O)=O)c1 (stereo in doubt) [Example 147, N-((S)-1-(3,5-dimethylphenyl)-2-((S)-3-hydroxypyrrolidin-1-yl)ethyl)-2-(1,1-dioxido-3-oxo-3,4-dihydro-2H-benzo[b][1,4]thiazin-6-yl)-N-methylacetamide] | ≤ 50
11 | CN(C(=O)Cc1ccc2c(c1)NC(=O)CS2(=O)=O)C(CN1CCC(O)C1)c1cccc(C2CC2)c1 (stereo in doubt) [Example 150, N-((S)-1-(3-cyclopropylphenyl)-2-((S)-3-hydroxypyrrolidin-1-yl)ethyl)-2-(1,1-dioxido-3-oxo-3,4-dihydro-2H-benzo[b][1,4]thiazin-6-yl)-N-methylacetamide] | ≤ 50
12 | CN(C(=O)Cc1ccc2c(c1)CC(=O)N2)C(CN1CCC(O)C1)c1ccccc1 (stereo in doubt) [Example 161, N-((S)-2-((S)-3-hydroxypyrrolidin-1-yl)-1-phenylethyl)-N-methyl-2-(2-oxoindolin-5-yl)acetamide] | ≤ 50
13 | O=C1COc2ccc(CC(=O)N[C@H](CN3CC[C@H](O)C3)c3ccccc3)cc2N1 [Example 2, N-[(1S)-2-[(3S)-3-hydroxypyrrolidin-1-yl]-1-phenylethyl]-2-(3-oxo-3,4-dihydro-2H-1,4-benzoxazin-6-yl)acetamide] | ≤ 50
14 | O=C(Cc1ccc2sc(=O)[nH]c2c1)N[C@H](CN1CCCC1)c1ccccc1 [Example 4, (S)-2-(2-oxo-2,3-dihydrobenzo[d]thiazol-5-yl)-N-(1-phenyl-2-(pyrrolidin-1-yl)ethyl)acetamide] | 51 to 100
15 | CN(C(=O)Cc1ccc2c(c1)NC(=O)CS2(=O)=O)[C@H](CN1CC[C@H](O)C1)c1cccc(OC(F)(F)F)c1 [Example 5, 2-(1,1-dioxido-3-oxo-3,4-dihydro-2H-benzo [b][1,4]thiazin-6-yl)-N-((S)-2-((S)-3-hydroxypyrrolidin-1-yl)-1-(3-(trifluoromethoxy)phenyl)ethyl)-N-methylacetamide] | ≤ 50
16 | CN(C(=O)Cc1ccc2c(c1)NC(=O)CS2(=O)=O)[C@H](CN1CC[C@H](O)C1)c1cccc(C#N)c1 [Example 6, N-((S)-1-(3-cyanophenyl)-2-((S)-3-hydroxypyrrolidin-1-yl)ethyl)-2-(1,1-dioxido-3-oxo-3,4-dihydro-2H-benzo[b][1,4]thiazin-6-yl)-N-methylacetamide] | ≤ 50
17 | CN(C(=O)Cc1ccc2c(c1)NC(=O)CS2)[C@H](CN1CC[C@H](O)C1)c1ccccc1 [Example 7, N-((S)-2-((S)-3-hydroxypyrrolidin-1-yl)-1-phenylethyl)-N-methyl-2-(3-oxo-3,4-dihydro-2H-benzo[b][1,4]thiazin-6-yl)acetamide] | ≤ 50
18 | CN(C(=O)Cc1ccc2c(c1)S(=O)(=O)NC2=O)[C@H](CN1CC[C@H](O)C1)c1ccccc1 [Example 8, 2-(1,1-dioxido-3-oxo-2,3-dihydrobenzo[d]isothiazol-6-yl)-N-((S)-2-((S)-3-hydroxypyrrolidin-1-yl)-1-phenylethyl)-N-methylacetamide] | ≥ 1000
19 | CN(C(=O)Cc1ccc2c(c1)NS(=O)(=O)C2)[C@H](CN1CC[C@H](O)C1)c1cccc(C(F)(F)F)c1 [Example 9, 2-(2,2-dioxido-1,3-dihydrobenzo[c]isothiazol-6-yl)-N-((S)-2-((S)-3-hydroxypyrrolidin-1-yl)-1-(3-(trifluoromethyl)phenyl)ethyl)-N-methylacetamide] | 101 to 1000
20 | CN(C(=O)Cc1ccc2c(c1)CS(=O)(=O)N2)[C@H](CN1CC[C@H](O)C1)c1ccccc1 [Example 10, 5-(2-(((S)-2-((S)-3-hydroxypyrrolidin-1-yl)-1-phenylethyl)(methyl)amino)-2-oxoethyl)-1,3-dihydrobenzo[c]isothiazol-1-ium 2,2-dioxide 2,2,2-trifluoroacetate] | 101 to 1000
